Experimental data as given in US9096593B2, “Compounds and methods for kinase modulation, and indications therefor” (Plexxikon Inc., priority 2009, dated 2015).
Like-named read-outs stand apart in the source and are kept apart here.

What was measured:
c-Kit kinase = c-Kit kinase (Homo sapiens (Human), UniProt P10721); assay: c-Kit kinase biochemical activity assay (AlphaScreen, biotin-(E4Y)10 phosphorylation)
Method: In one assay the biochemical activity IC50 values are determined with respect to inhibition of c-Kit kinase activity, where inhibition of phosphorylation of a peptide substrate is measured as a function of compound concentration. Compounds to be tested are dissolved in DMSO to a concentration of 20 mM. These are diluted 30 μL into 120 μL of DMSO (4 mM) and 1 μL is added to an assay plate. These are then serially diluted […] (50 μL to 100 μL DMSO) for a total of 8 points. Plates are prepared such that each kinase reaction is 20 μL in 1× kinase buffer (25 mM HEPES, pH 7.5, 2 mM MgCl2, 2 mM MnCl2, 0.01% Tween-20, 1 mM DTT, 0.01% BSA), 5% DMSO and 100 μM ATP. Substrate is 30 nM biotin-(E4Y)10 (Millipore). C-kit kinase (obtained from Millipore (#14-559) or is prepared as described in U.S. Patent Application Publication Number 2009/0076046, the disclosure of which is hereby incorporated by reference as it relates to this assay) is at 0.75 ng per sample. After incubation of the kinase reaction for 1 hour at room temperature, 5 μL of donor beads (Streptavidin coated beads (Perkin Elmer Life Science) final concentration 10 μg/mL) in stop buffer (25 mM Hepes pH 7.5, 100 mM EDTA, 0.01% BSA) is added, the sample is mixed and incubated for 20 minutes at room temperature before adding 5 μL of acceptor beads (PY20 coated beads (Perkin Elmer Life Science) final concentration 10 μg/mL) in stop buffer. The samples are incubated for 60 minutes at room temperature and the signal per well is read on Envision reader. […] The signal vs. compound concentration is used to determine the IC50.

[1] = Turbidity assay of relative solubility in aqueous buffers; assay type: physicochemical; settings: for turbidity threshold (L, M, H) 1.4: pH 1.4 as headed (method: SGF pH 1.5); for turbidity threshold (L, M, H) 4.5: pH 4.5 (SIF); for turbidity threshold (L, M, H) 6.8: pH 6.8 (SIF); for turbidity threshold (L, M, H) 7.4: pH 7.4 (HEPES)
Method: As an indication of relative solubility, the turbidity of compounds in aqueous solutions is assessed. To assess possible compound properties in different physiological compartments, such as stomach, intestine, and blood, a series of aqueous buffers with varying pH is used. Thus each compound is diluted into four different physiologically relevant buffers and solution turbidity is measured by spectrophotometry.
Compounds are dissolved at a concentration of 25 mM in dimethyl sulfoxide, then serially diluted 1:1 into a 96 well plate, diluting 10 times in pure dimethyl sulfoxide, with the final well of each row a dimethyl sulfoxide blank. In an assay plate, 99 μL of appropriate buffer is added to each well, and 1 μL of each sample dilution is added to the buffer, achieving a range of final total concentrations in aqueous solutions having different pH. The buffers used are Simulated Gastric Fluid (SGF-pH 1.5) 0.5M NaCl, pH 1.5; Simulated Intestinal fluid (SIF-pH 4.5 and pH 6.8) 0.05M NaH2PO4, pH 4.5 and 6.8; and Hepes Buffer (HEPES-pH 7.4) 10 mM HEPES, 150 mM NaCl, pH 7.4. Control compounds pyrene, estriol and propranolol HCl are also assessed. Plates are spun and then mixed for 1 minute, and the absorbance is read using a Tecan Safire II to read wavelengths in the visible range (490, 535, and 650 nm) at four locations per well, reflecting the degree of turbidity present. The average optical density for each wavelength in each well is graphed vs. compound concentration, and the concentration at which the curve crosses a threshold O.D. of 0.01 for each wavelength is reported as the endpoint turbidity assay result. The average of the three wavelengths is used to compare turbidity of compounds. Compounds are considered to have low solubility if the threshold concentration is <31.3 μM, moderate solubility if the threshold concentration is 31.3 μM to 250 μM, and high solubility if the threshold concentration is >250 μM.

CYP1A2 = CYP1A2 (Homo sapiens (Human), UniProt P05177); assay: CYP enzyme inhibition, fluorescent substrate; settings: human, 15 min
Method: (§1) CYP (Cytochrome P450) enzymes are the major drug metabolizing enzymes present in the liver. The inhibition of CYP enzyme activity (IC50) for each of CYP1A2, CYP2C19, CYP2C9, CYP2D6, CYP3A4(BFC) and CYP3A4(BQ) is determined for compounds, where inhibition of metabolism of a known substrate leads to a decrease in the fluorescence of the metabolized product. The fluorescence of the product is monitored as a function of compound concentration.
(§2) Compounds are dissolved in DMSO to a concentration of 100 mM. These are diluted 1 μL into 82 μL of acetonitrile. An 11 μL aliquot of this solution is then added to 204 μL of cofactor mix (1.3% NADPH Regeneration system Solution A, 1.04% NADPH Regeneration system Solution B from BD Biosciences, 5% acetonitrile and 0.05% DMSO). These are then serially diluted 1:1 (160 μL to 160 μL co-factor mix) for a total of 10 points. A 10 μL aliquot of this final mixture is dispensed into 384 well assay plates and incubated for 10 minutes at 37° C. Enzyme and substrate mix (10 μL; […] CYP1A2/5 μM CEC; 1.0 μmol CYP2C9/75 μM MFC; […] CYP2C19/25 μM CEC; 1.5 μmol CYP2D6/1.5 μM AMMC; 1.0 μmol CYP3A4/50 μM BFC; or 1.0 μmol CYP3A4/40 μM BQ) is added to these assay plates. Assay plates are incubated at 37° C. (CYP1A2-15 min; CYP2C9-45 min; CYP2C19, 2D6 and 3A4-30 min) and read in a Tecan Safire 2 plate reader (CYP1A2, 2C19 and 3A4 409 ex/460 em; CYP2C9 and 2D6409 ex/530 em). The signal versus compound concentration is used to determine the IC50. The enzymes and substrates for this assay are obtained from BD Biosciences.

CYP3A4(BFC) = CYP3A4(BFC) (Homo sapiens (Human), UniProt P08684); assay: CYP enzyme inhibition, fluorescent substrate
Method: as §1, §2

CYP2C9 = CYP2C9 (Homo sapiens (Human), UniProt P11712); assay: CYP enzyme inhibition, fluorescent substrate
Method: as §1, §2

CYP3A4(BQ) = CYP3A4(BQ) (Homo sapiens (Human), UniProt P08684); assay: CYP enzyme inhibition, fluorescent substrate; settings: read-out: Cyp IC50 (μM) 3A4(BQ); BQ substrate
Method: as §1, §2

CYP2C19 = CYP2C19 (Homo sapiens (Human), UniProt P33261); assay: CYP enzyme inhibition, fluorescent substrate
Method: as §1, §2

Fms kinase = Fms kinase (Homo sapiens (Human), UniProt P07333); assay: Fms kinase biochemical activity assay (AlphaScreen, biotin-(E4Y)10 phosphorylation)
Method: In one assay the biochemical activity IC50 values are determined with respect to inhibition of Fms kinase activity, where inhibition of phosphorylation of a peptide substrate is measured as a function of compound concentration. Compounds to be tested, dissolved in DMSO (1 μL), are added to a white 384-well plate (Costar #3705). Working stocks of Fms kinase (Invitrogen #PV3249), biotin-(E4Y)10 substrate (Upstate Biotech, Cat#12-440), and ATP (Sigma, Cat#A-3377) are prepared in 25 mM Hepes pH 7.5, 0.5 mM MgCl2, 2 mM MnCl2, 2 mM DTT, 0.01% BSA, and 0.01% Tween-20. All components are added to the 384-well plate for a final concentration of 1 ng/well Fms, 30 nM biotin-(E4Y)10 (Upstate Biotechnology) and 100 μM ATP in a volume of 20 μL. Each sample is at 5% DMSO. The plate is then incubated for 20 minutes at 30° C. Just before use, working stocks of donor and acceptor beads from the AlphaScreen PY20 Detection Kit (PerkinElmer, Cat#676601M) are prepared in 25 mM Hepes pH 7.5, pH 7.4, 100 mM EDTA, 0.01% BSA. To stop the reaction, the plate is uncovered in the dark and 5 μL of Donor Beads solution (Streptavidin beads) is added to each well. The plate is incubated at room temperature for 20 minutes. Five microliters of Acceptor Beads solution (PY20 coated beads) are then added to each well. The final concentration of each bead is 10 μg/mL. The plates are incubated at room temperature for 60 minutes. Fluorescence signal is recorded on the Envision reader. […] The signal vs. compound concentration is used to determine the IC50.

CYP2D6 = CYP2D6 (Homo sapiens (Human), UniProt P10635); assay: CYP enzyme inhibition, fluorescent substrate; settings: read-out: Cyp IC50 (μM) 2D6
Method: as §1, §2

CYP2C19, sequence (P33261 whole entry): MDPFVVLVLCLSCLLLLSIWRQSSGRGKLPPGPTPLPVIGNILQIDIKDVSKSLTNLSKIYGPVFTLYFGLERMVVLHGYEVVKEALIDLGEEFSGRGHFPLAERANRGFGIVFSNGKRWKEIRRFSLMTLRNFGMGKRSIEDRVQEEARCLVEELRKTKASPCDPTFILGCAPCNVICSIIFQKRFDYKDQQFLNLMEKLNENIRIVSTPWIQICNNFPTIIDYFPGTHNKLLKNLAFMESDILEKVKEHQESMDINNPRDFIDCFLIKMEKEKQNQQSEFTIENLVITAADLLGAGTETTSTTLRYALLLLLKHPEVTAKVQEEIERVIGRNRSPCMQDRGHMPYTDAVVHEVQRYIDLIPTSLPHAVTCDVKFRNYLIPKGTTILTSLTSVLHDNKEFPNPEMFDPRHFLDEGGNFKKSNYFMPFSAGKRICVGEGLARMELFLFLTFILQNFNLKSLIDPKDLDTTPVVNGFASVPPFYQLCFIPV
CYP1A2, sequence (P05177 whole entry): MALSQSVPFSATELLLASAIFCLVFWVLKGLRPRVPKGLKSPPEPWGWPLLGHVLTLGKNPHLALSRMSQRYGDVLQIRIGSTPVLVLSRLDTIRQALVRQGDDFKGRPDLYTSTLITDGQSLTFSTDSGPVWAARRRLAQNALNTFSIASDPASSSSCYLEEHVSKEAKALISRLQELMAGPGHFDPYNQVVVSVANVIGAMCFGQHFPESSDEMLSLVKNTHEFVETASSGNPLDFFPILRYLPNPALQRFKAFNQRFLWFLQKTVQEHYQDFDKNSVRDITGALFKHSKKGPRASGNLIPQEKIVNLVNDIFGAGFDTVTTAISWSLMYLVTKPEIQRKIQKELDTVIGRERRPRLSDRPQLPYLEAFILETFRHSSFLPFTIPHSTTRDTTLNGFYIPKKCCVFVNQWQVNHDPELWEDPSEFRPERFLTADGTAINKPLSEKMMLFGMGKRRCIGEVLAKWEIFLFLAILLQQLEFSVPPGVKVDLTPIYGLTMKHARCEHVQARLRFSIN
CYP3A4(BQ), sequence (P08684 whole entry): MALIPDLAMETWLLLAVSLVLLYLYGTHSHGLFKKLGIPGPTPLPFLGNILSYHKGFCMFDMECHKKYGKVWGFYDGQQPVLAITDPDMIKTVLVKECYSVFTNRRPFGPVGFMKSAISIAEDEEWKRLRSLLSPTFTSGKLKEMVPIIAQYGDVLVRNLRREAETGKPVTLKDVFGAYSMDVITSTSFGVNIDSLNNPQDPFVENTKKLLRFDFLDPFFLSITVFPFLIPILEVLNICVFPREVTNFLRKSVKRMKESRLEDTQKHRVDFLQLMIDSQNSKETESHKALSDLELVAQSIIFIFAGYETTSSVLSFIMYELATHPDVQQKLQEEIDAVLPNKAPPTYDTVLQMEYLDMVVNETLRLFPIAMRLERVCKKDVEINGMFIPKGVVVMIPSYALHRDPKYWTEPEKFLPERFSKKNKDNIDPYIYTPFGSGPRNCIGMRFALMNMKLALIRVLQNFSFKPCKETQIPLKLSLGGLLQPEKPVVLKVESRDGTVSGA
CYP3A4(BFC), sequence (P08684 whole entry): as above
CYP2C9, sequence (P11712 whole entry): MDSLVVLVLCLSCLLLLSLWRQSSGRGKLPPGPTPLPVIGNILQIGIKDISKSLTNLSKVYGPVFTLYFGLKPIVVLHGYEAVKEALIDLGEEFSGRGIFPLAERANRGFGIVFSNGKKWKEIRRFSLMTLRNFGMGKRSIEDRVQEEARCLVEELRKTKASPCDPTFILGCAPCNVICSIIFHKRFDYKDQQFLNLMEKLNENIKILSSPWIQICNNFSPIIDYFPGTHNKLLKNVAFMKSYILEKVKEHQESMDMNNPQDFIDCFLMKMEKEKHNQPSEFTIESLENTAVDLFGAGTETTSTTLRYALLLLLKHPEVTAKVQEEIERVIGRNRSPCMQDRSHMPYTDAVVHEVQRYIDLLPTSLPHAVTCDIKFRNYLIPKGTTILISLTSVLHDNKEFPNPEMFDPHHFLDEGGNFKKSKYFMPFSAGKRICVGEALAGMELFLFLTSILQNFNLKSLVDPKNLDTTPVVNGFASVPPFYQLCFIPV
Fms kinase, sequence (P07333 20-972): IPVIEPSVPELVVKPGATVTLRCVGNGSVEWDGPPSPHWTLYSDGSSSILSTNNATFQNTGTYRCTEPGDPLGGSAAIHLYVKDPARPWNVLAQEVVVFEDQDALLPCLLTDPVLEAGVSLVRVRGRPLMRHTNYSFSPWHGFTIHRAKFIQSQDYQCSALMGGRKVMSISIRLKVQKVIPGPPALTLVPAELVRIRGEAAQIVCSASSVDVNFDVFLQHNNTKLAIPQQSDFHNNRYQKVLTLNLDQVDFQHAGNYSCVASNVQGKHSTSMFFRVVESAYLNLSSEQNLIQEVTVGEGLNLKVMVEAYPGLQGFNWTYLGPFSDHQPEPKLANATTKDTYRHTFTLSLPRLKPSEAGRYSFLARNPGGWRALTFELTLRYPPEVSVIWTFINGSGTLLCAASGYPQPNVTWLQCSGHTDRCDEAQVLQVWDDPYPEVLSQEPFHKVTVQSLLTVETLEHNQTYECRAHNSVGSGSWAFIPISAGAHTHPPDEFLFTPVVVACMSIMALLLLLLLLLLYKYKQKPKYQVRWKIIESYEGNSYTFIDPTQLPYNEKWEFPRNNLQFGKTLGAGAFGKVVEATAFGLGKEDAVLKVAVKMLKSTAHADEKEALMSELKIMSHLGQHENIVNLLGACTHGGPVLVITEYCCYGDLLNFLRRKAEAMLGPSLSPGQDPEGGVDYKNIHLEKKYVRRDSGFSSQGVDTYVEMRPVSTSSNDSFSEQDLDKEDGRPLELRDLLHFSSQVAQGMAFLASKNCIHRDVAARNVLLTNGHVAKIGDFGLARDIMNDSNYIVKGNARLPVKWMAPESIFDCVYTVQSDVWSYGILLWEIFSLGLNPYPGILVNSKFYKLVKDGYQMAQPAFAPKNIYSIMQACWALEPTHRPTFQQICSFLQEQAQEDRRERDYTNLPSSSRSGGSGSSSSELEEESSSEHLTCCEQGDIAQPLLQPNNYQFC
CYP2D6, sequence (P10635 whole entry): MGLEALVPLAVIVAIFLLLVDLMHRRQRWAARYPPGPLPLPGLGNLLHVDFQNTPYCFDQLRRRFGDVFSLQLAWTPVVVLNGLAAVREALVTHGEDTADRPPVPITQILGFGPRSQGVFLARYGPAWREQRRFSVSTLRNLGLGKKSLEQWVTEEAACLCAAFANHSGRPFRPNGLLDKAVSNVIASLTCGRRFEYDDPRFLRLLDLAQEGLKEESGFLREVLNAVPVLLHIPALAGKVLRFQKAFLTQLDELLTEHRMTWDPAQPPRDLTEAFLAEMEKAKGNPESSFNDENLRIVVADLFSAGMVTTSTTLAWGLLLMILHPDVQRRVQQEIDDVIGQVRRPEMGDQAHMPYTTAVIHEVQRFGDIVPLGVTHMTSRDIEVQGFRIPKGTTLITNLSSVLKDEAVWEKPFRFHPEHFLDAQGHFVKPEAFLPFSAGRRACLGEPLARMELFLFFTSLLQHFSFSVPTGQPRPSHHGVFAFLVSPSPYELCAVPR
c-Kit kinase, sequence (P10721 26-976): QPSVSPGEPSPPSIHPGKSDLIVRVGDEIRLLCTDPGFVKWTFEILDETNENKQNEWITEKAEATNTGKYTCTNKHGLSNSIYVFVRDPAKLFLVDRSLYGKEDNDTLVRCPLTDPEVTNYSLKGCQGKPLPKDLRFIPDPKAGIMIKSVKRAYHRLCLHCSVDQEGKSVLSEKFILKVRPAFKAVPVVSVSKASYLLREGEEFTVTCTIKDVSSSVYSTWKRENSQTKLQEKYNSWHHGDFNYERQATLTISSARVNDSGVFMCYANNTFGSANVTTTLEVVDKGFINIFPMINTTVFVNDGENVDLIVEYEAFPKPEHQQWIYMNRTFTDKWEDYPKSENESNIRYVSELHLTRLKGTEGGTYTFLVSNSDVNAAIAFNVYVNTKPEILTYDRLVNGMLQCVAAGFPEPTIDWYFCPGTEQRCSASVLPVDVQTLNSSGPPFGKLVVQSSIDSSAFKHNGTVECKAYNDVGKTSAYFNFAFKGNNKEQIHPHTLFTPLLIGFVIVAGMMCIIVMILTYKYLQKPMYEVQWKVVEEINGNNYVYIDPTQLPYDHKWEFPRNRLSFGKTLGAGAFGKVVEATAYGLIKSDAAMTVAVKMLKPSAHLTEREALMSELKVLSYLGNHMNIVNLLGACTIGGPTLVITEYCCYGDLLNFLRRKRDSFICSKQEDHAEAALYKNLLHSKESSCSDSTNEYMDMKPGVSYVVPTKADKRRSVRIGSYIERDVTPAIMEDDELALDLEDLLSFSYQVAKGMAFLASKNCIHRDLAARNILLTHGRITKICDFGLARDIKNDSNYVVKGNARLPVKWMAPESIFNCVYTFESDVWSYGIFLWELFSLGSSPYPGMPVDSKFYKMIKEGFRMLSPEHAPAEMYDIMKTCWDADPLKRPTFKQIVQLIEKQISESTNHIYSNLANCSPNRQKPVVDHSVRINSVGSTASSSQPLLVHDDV

## Cc1cnc2[nH]cc(Cc3ccc(NCc4ccnc(C)c4)nc3F)c2c1 [Compound P-2067, [6-Fluoro-5-(5-methyl-1H-pyrrolo[2,3-b]pyridin-3-ylmethyl)-pyridin-2-yl]-(2-methyl-pyridin-4-ylmethyl)-amine]
c-Kit kinase
  IC50: > 0.1 µM
[1]
  turbidity threshold (L, M, H) 1.4: H (high solubility if the threshold concentration is >250 μM)
  turbidity threshold (L, M, H) 4.5: H (high solubility if the threshold concentration is >250 μM)
  turbidity threshold (L, M, H) 6.8: H (high solubility if the threshold concentration is >250 μM)
  turbidity threshold (L, M, H) 7.4: H (high solubility if the threshold concentration is >250 μM)
CYP1A2
  IC50: > 10 µM
CYP3A4(BFC); read-out: Cyp IC50 (μM) 3A4(BFC), BFC substrate
  IC50: < 5 µM
CYP2C9; read-out: Cyp IC50 (μM) 2C9
  IC50: < 5 µM
CYP3A4(BQ)
  IC50: > 10 µM
CYP2C19; read-out: Cyp IC50 (μM) 2C19
  IC50: < 5 µM
Fms kinase; Kit IC50/Fms IC50, biochemical
  Biochemical activity selectivity (Kit IC50/Fms IC50): >20
Fms kinase; read-out: Biochemical activity (IC50 μM) Fms
  IC50: < 0.1 µM

## COc1ncc(F)cc1CNc1ccc(Cc2c[nH]c3ncc(C)cc23)c(F)n1 [Compound P-2049, (5-Fluoro-2-methoxy-pyridin-3-ylmethyl)-[6-fluoro-5-(5-methyl-1H-pyrrolo[2,3-b]pyridin-3-ylmethyl)-pyridin-2-yl]-amine]
[1]
  turbidity threshold (L, M, H) 1.4: M (moderate solubility if the threshold concentration is 31.3 μM to 250 μM)
  turbidity threshold (L, M, H) 4.5: L (low solubility if the threshold concentration is <31.3 μM)
  turbidity threshold (L, M, H) 6.8: L (low solubility if the threshold concentration is <31.3 μM)
  turbidity threshold (L, M, H) 7.4: L (low solubility if the threshold concentration is <31.3 μM)
CYP1A2
  IC50: > 10 µM
CYP3A4(BFC)
  IC50: 5 to 10 µM
CYP2D6
  IC50: > 10 µM
CYP2C9
  IC50: 5 to 10 µM
CYP3A4(BQ)
  IC50: > 10 µM
CYP2C19
  IC50: 5 to 10 µM
